In patent US6573271B2, “Method of preventing proliferation of retinal pigment epithelium by retinoic acid receptor agonists” (John Hopkins University School of Medicine, priority 1995, dated 2003):

What was measured:
RPE cells = assay: RPE cell morphology after 10 days in retinoid; format: cell-based, human; conditions: 1 μm, 5% serum, on plastic
[1] = test system: rabbit cell injection model of PVR; assay: Rabbit cell injection model of PVR (RPE cells), intravitreous injection of retinoids; format: in vivo; conditions: for Any RD (%) / Total RD (%): 28 Days; for frequency and severity of traction retinal detachments versus vehicle: initial group, intravitreous injections of 100 μg; for frequency and severity of retinal detachments versus control: single intravitreous injection one day after RPE cell injection
Experimental: Briefly, pigmented rabbits were anesthetized with a subcutaneous injection of 5 mg/kg of xylazine and 25 mg/kg of ketamine, and the pupil of one eye was dilated with 2½% phenylephrine. Under direct observation 5×10^5 RPE cells were injected into the vitreous cavity just anterior to the optic nerve. […] .
Rabbits were examined by indirect ophthalmoscopy on days 7, 14 and 28 and traction retinal detachments were graded. […] . The localized clouds decreased in size and cleared over 2 to 3 weeks. There were no visible changes in the retina. […] .
It was felt that the hair loss and possibly the loss of appetite and death were due to systemic toxicity from drug that had gotten out of the eye. […] . None of the rabbits experienced hair loss and none died; their appetites appeared to be normal.

retinas of the rabbits = assay: Ocular toxicity after single intravitreous injection, histopathology of retina; format: in vivo, rabbit; conditions: single intravitreous injection of 100 μg, two weeks after injection
Description: The rabbits were killed two weeks after injection.

human RPE cells = assay: [3H]thymidine incorporation / proliferation of cultured human RPE cells; conditions: for inhibition at 0.05 µM / inhibition at 0.1 µM / inhibition at 1 µM: Homo sapiens, RPE, read-out: Percent Inhibition of [3H]thymidine incorporation in RPE cells
Description: Primary cultures of human retinal pigment epithelium (RPE) cells were established from eyes obtained from the Old Dominion Eye Bank (Richmond, Va.) or the Eye Bank of Maryland (Baltimore, Md.) using the technique described in P. A. Campochiaro, et al., Invest.
For [3H]thymidine incorporation, RPE cells at passage 3 or 4 were lightly trypsinized and plated in 16-mm wells of 24-well plates. The transfected cells were allowed to attach overnight and then the media containing 5% fetal bovine serum (FBS) were supplemented with retinoids or vehicle alone. Stock solutions (10^−3M) of retinoids were prepared in dimethylsulfoxide (DMSO) and stored as frozen aliquots until used; the highest final concentration of DMSO was 0.1% and was also used for control cultures. The media containing freshly prepared retinoids were changed every three days. At 7 or 10 days 2 μCi/ml of [^3H]thymidine (specific activity, 6.7 Ci/mM; New England Nuclear, Boston, Mass.) was added to the cultures and incorporation was measured as previously described (Leschey, supra).
The potency of retinoid agonists for inhibition of serum stimulated DNA synthesis in human RPE cells was tested. […] The cells were shifted to serum-free media containing the same concentration of retinoid and then pulsed with 10% serum for 18 hours, after which [^3H]thymidine incorporation was measured. Thymidine incorporation for cells grown in control medium was used to calculate the percent inhibition of thymidine incorporation induced by four concentrations of each retinoid (each concentration tested in triplicate) which were then used to generate each line.

RARβ = target: T1, RARβ (Homo sapiens, UniProt P10826); assay: Transactivation, ER/RAR-β hybrid receptor + ERE-CAT reporter cotransfected in HeLa cells
T1 sequence (P10826 183-417 limits assumed): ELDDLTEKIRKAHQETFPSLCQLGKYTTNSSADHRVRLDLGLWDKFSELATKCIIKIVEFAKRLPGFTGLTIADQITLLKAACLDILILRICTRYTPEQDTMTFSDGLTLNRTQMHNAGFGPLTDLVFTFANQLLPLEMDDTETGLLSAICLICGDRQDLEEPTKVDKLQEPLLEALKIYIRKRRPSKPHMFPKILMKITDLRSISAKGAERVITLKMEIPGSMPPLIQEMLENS

RARγ = target: T2, RARγ (Homo sapiens, UniProt P13631); assay: Transactivation, ER/RAR-γ hybrid receptor + ERE-CAT reporter cotransfected in HeLa cells
T2 sequence (P13631 185-419 limits assumed): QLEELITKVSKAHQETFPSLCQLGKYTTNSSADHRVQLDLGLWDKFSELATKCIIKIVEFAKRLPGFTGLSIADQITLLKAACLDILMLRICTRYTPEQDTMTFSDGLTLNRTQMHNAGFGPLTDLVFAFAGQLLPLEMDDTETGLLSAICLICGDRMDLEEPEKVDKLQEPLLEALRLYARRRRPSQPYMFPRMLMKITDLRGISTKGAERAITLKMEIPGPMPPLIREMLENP

RXRα = target: T3, RXRα (Homo sapiens, UniProt P19793); assay: Transactivation, ER/RXR-α hybrid receptor + ERE-CAT reporter cotransfected in HeLa cells
T3 sequence (P19793 227-458 limits assumed): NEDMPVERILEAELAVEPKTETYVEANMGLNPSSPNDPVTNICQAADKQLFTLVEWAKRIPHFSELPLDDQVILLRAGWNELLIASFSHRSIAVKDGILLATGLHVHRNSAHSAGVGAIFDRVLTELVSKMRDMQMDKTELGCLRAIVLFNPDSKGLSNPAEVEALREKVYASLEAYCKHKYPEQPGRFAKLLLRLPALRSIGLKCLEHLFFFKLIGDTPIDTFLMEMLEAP

[2] = test system: traction retinal detachment in rabbits; assay: Traction retinal detachment in rabbits after human RPE cells, intravitreal injection of 168 and 299; format: in vivo, rabbit
[3] = test system: traction retinal detachment in rabbits; assay: Traction retinal detachment in rabbits after human RPE cells, subconjunctival injection; format: in vivo, rabbit; conditions: subconjunctival 0.3 mg once a day for five days
Description: Due to the toxicity of certain RAR agonists and because the effects of retinoids are delayed in onset and reversible, methods for sustained release of the retinoids were investigated. […] The therapeutic effect of the RAR specific agonists was greater than that of RA, which is an agonist for both RXRs and RARs. There were no signs of any toxicity to the retina.

[4] = test system: traction retinal detachment in rabbits; assay: Traction retinal detachment in rabbits after human dermal fibroblasts, subconjunctival lipid microvesicles; format: in vivo, rabbit; conditions: human dermal fibroblasts
rabbit model of PVR [5] = conditions: 2 to 20 μg/ml SiO, 8 weeks; untreated controls 100%; cited from earlier work
rabbit model of PVR [6] = conditions: about 100 μg in biodegradable microspheres, vitreous cavity; cited from earlier work
[7] = test system: traction retinal detachment in rabbits; assay: Traction retinal detachment in rabbits after human dermal fibroblasts, subconjunctival injection
[8] = test system: traction retinal detachment in rabbits; assay: Traction retinal detachment in rabbits after human dermal fibroblasts, intravitreous lipid microvesicles
Description: In this experiment the retinoid was incorporated into lipid microvesicles utilizing standard techniques.

[9] = 100 μg intravitreous, two injections (day 1 and day 2 after cell injection)
[10] = 100 μg intravitreous, two injections
[11] = 100 μg, single intravitreous injection
[12] = 50 μg, single intravitreous injection

SMILES: C/C(=C\c1cc(C(=O)O)cs1)c1cc2c(cc1C)C(C)(C)CCC2(C)C [Compound 701, 2-[(E)-2-(5,6,7,8-tetrahydro-3,5,5,8,8-pentamethylnaphthaleen-2-yl)propen-1-yl]thiophene-4-carboxylic acid]
- RPE cell morphology / cell overgrowth (RPE cells): failed to prevent cell overgrowth
- Partial RD at 14 Days (number of eyes) [1, 9]: 3
- Partial RD at 28 Days (number of eyes) [1, 9]: 2
- Total RD at 14 Days (number of eyes) [1, 9]: 3
- Total RD at 28 Days (number of eyes) [1, 9]: 5
- Any RD (%) [1, 10]: 87.5%
- Total RD (%) [1, 10]: 62.5%
- Partial RD at 14 Days (number of eyes) [1, 11]: 2
- Partial RD at 28 Days (number of eyes) [1, 11]: 1
- Total RD at 14 Days (number of eyes) [1, 11]: 2
- Total RD at 28 Days (number of eyes) [1, 11]: 3
- Any RD (%) [1, 11]: 80%
- Total RD (%) [1, 11]: 60%
- frequency and severity of traction retinal detachments versus vehicle [1]: did not differ from controls
- frequency and severity of retinal detachments versus control [1]: not statistically different from controls
- inner retinal edema, histopathology (retinas of the rabbits): a few focal areas of inner retinal edema
- retinal necrosis, histopathology (retinas of the rabbits): a few focal areas of retinal necrosis
- inhibition at 0.05 µM (human RPE cells): 12%
- inhibition at 0.1 µM (human RPE cells): 48.8%
- inhibition at 1 µM (human RPE cells): 74.6%
- inhibition of RPE [3H]thymidine incorporation (human RPE cells; incubation for 7 or 10 days): much less effective inhibitor
- EC50 (RARβ): 3000 nM
- EC50 (RARγ): 1000 nM
- EC50 (RXRα): 100 nM

SMILES: CC1=C(/C=C/C(C)=C/C=C/C(C)=C/C(=O)O)C(C)(C)CCC1 [All trans RA, all-trans retinoic acid, reference compound]
- RPE cell morphology / cell overgrowth (RPE cells): did not exhibit cell overgrowth
- Partial RD at 14 Days (number of eyes) [1, 12]: 0
- Partial RD at 28 Days (number of eyes) [1, 12]: 0
- Total RD at 14 Days (number of eyes) [1, 12]: 4
- Total RD at 28 Days (number of eyes) [1, 12]: 4
- Any RD (%) [1, 12]: 66.7%
- Total RD (%) [1, 12]: 66.7%
- Partial RD at 14 Days (number of eyes) [1, 9]: 2
- Partial RD at 28 Days (number of eyes) [1, 9]: 4
- Total RD at 14 Days (number of eyes) [1, 9]: 0
- Total RD at 28 Days (number of eyes) [1, 9]: 0
- Any RD (%) [1, 10]: 44.4+ %
- Total RD (%) [1, 10]: 0%
- Partial RD at 14 Days (number of eyes) [1, 11]: 1
- Partial RD at 28 Days (number of eyes) [1, 11]: 1
- Total RD at 14 Days (number of eyes) [1, 11]: 0
- Total RD at 28 Days (number of eyes) [1, 11]: 1
- Any RD (%) [1, 11]: 28.6+ %
- Total RD (%) [1, 11]: 14.3%
- frequency and severity of traction retinal detachments versus vehicle [1]: fewer (p(0.05) and less severe traction retinal detachments
- frequency and severity of retinal detachments versus control [1]: fewer (p(0.05) and less severe retinal detachments
- % Any RD [2]: 100%
- % Total RD [2]: 0%
- RD at 7 Days, Partial [2]: 0
- RD at 7 Days, Total [2]: 0
- RD at 14 Days, Partial [2]: 0
- RD at 14 Days, Total [2]: 0
- RD at 28 Days, Partial [2]: 2
- RD at 28 Days, Total [2]: 0
- % Any RD [3]: 0%
- % Total RD [3]: 0%
- RD at 7 Days, Partial [3]: 0
- RD at 7 Days, Total [3]: 0
- RD at 14 Days, Partial [3]: 0
- RD at 14 Days, Total [3]: 0
- RD at 28 Days, Partial [3]: 0
- RD at 28 Days, Total [3]: 0
- % Any RD [4]: 63%
- % Total RD [4]: 13%
- RD at 7 Days, Partial [4]: 0
- RD at 7 Days, Total [4]: 0
- RD at 14 Days, Partial [4]: 0
- RD at 14 Days, Total [4]: 1
- RD at 28 Days, Partial [4]: 4
- RD at 28 Days, Total [4]: 1
- rate of retinal detachment (rabbit model of PVR [5]): 44.5%
- tractional retinal detachment (TRD) (rabbit model of PVR [6]): significantly decreased tractional retinal detachment
- inhibition at 0.05 µM (human RPE cells): 52.6%
- inhibition at 0.1 µM (human RPE cells): 78.3%
- inhibition at 1 µM (human RPE cells): 99.4%
- inhibition of [3H]thymidine incorporation in RPE cells (human RPE cells; incubation for 7 days, FIG. 1): dose-dependent inhibition
- % Any RD [7]: 50%
- % Total RD [7]: 0%
- RD at 7 Days, Partial [7]: 0
- RD at 7 Days, Total [7]: 0
- RD at 14 Days, Partial [7]: 0
- RD at 14 Days, Total [7]: 0
- RD at 28 Days, Partial [7]: 5
- RD at 28 Days, Total [7]: 0
- effect on retinal detachments [7]: decreased the number of retinal detachments and slowed the rate at which they developed
- prevention of traction retinal detachment [8]: not effective
- % Any RD ([8]; human dermal fibroblasts): 67%
- % Total RD ([8]; human dermal fibroblasts): 67%
- RD at 7 Days, Partial ([8]; human dermal fibroblasts): 1
- RD at 7 Days, Total ([8]; human dermal fibroblasts): 0
- RD at 14 Days, Partial ([8]; human dermal fibroblasts): 1
- RD at 14 Days, Total ([8]; human dermal fibroblasts): 1
- RD at 28 Days, Partial ([8]; human dermal fibroblasts): 0
- RD at 28 Days, Total ([8]; human dermal fibroblasts): 4
